#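 Results reflect a 48-hour exposure of cells in 96-well plates to compound at five concentrations. The concentration for 50% growth inhibition is given as GI50.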 Active and inactive are the calls of the source. Rule as the data show it: active = GI50 up to about 1.1 µM and inactive = higher.
# Tests used:
# Assay in all cases: growth of human tumour cells (NCI), 48 h
# SNB-75 = test system: SNB-75
# HCC 2998 = test system: HCC 2998
# Malme-3M = test system: Malme-3M
# PC-3 = test system: PC-3
# U-251 = test system: U-251
# LOX IMVI = test system: LOX IMVI
# MDA-N = test system: MDA-N
# SK-MEL-2 = test system: SK-MEL-2
# ACHN = test system: ACHN
# IGROV-1 = test system: IGROV-1
# HOP-62 = test system: HOP-62
# NCI-H226 = test system: NCI-H226
# SW-620 = test system: SW-620
# SK-OV-3 = test system: SK-OV-3
# SF-539 = test system: SF-539
# MDA-MB-435 = test system: MDA-MB-435
# UO-31 = test system: UO-31
# OVCAR-5 = test system: OVCAR-5
# UACC-62 = test system: UACC-62
Compound,GI50 (SNB-75),GI50 (HCC 2998),GI50 (Malme-3M),GI50 (PC-3),GI50 (U-251),GI50 (LOX IMVI),GI50 (MDA-N),GI50 (SK-MEL-2),GI50 (ACHN),GI50 (IGROV-1),GI50 (HOP-62),GI50 (NCI-H226),GI50 (SW-620),GI50 (SK-OV-3),GI50 (SF-539),GI50 (MDA-MB-435),GI50 (UO-31),GI50 (OVCAR-5),GI50 (UACC-62)
O=C1C(CN2CCCCC2)CCC1CN1CCCCC1 (stereo not drawn),> 47.8 µM (inactive),> 44.7 µM (inactive),17.7 µM (inactive),27.1 µM (inactive),> 46.7 µM (inactive),16 µM (inactive),15 µM (inactive),30.1 µM (inactive),26 µM (inactive),32.1 µM (inactive),> 100 µM (inactive),> 96.6 µM (inactive),6.37 µM (inactive),> 100 µM (inactive),30.6 µM (inactive),33 µM (inactive),15 µM (inactive),11.4 µM (inactive),17.3 µM (inactive)
O=C(c1ccccc1)c1cc[n+](C2=C([N-]S(=O)(=O)c3ccccc3)C(=O)c3ccccc3C2=O)cc1,11.6 µM (inactive),11.4 µM (inactive),4.34 µM (inactive),11.1 µM (inactive),4.38 µM (inactive),2.42 µM (inactive),1.86 µM (inactive),3 µM (inactive),12.7 µM (inactive),9.35 µM (inactive),10.6 µM (inactive),15.8 µM (inactive),10 µM (inactive),15.4 µM (inactive),12.9 µM (inactive),1.72 µM (inactive),11.7 µM (inactive),19.2 µM (inactive),1.88 µM (inactive)
Oc1cc(-c2cccc(OC(F)(F)F)c2)nc2ccc(N3CCCC3)cc12,< 0.0001 µM (active),0.000547 µM (active),0.000114 µM (active),0.000318 µM (active),< 0.0001 µM (active),0.000205 µM (active),< 0.0001 µM (active),0.000127 µM (active),0.000622 µM (active),0.00131 µM (active),0.000441 µM (active),0.000142 µM (active),0.00019 µM (active),0.000117 µM (active),0.000147 µM (active),< 0.0001 µM (active),0.000555 µM (active),0.000297 µM (active),< 0.0001 µM (active)
O=C(O)CCSc1nnc(COc2ccc(Cl)cc2)n1-c1ccccc1,> 100 µM (inactive),> 100 µM (inactive),> 100 µM (inactive),> 100 µM (inactive),> 100 µM (inactive),> 100 µM (inactive),> 100 µM (inactive),> 100 µM (inactive),> 100 µM (inactive),> 100 µM (inactive),> 100 µM (inactive),> 100 µM (inactive),> 100 µM (inactive),> 100 µM (inactive),> 100 µM (inactive),> 100 µM (inactive),> 100 µM (inactive),> 100 µM (inactive),> 100 µM (inactive)
CCN(CC)C(=S)N/N=C/c1cc(OC)ccc1O,19.4 µM (inactive),3.86 µM (inactive),4.23 µM (inactive),8.85 µM (inactive),3.61 µM (inactive),2.32 µM (inactive),6.68 µM (inactive),74.1 µM (inactive),2.98 µM (inactive),6.37 µM (inactive),7.5 µM (inactive),3.03 µM (inactive),8.28 µM (inactive),5.21 µM (inactive),6.97 µM (inactive),6.18 µM (inactive),0.561 µM (active),57.5 µM (inactive),4.25 µM (inactive)
O=C1CC2SC(COCc3ccccc3)(CCN2Cc2ccccc2)C1 (stereo not drawn),> 100 µM (inactive),> 100 µM (inactive),39.3 µM (inactive),35 µM (inactive),66.8 µM (inactive),31.8 µM (inactive),71.4 µM (inactive),> 100 µM (inactive),82.2 µM (inactive),> 100 µM (inactive),> 100 µM (inactive),87.3 µM (inactive),> 100 µM (inactive),> 100 µM (inactive),> 100 µM (inactive),51.6 µM (inactive),34.7 µM (inactive),> 100 µM (inactive),81.1 µM (inactive)
O=C1CCCC1CN1CCCC1 (stereo not drawn),17.1 µM (inactive),> 45.2 µM (inactive),2.04 µM (inactive),18.9 µM (inactive),23 µM (inactive),8.75 µM (inactive),13.5 µM (inactive),7.14 µM (inactive),6.08 µM (inactive),10.6 µM (inactive),> 67 µM (inactive),46.2 µM (inactive),5.24 µM (inactive),13.8 µM (inactive),18.8 µM (inactive),13.1 µM (inactive),7.31 µM (inactive),18.3 µM (inactive),17.7 µM (inactive)

# Source: ChEMBL document CHEMBL1201862, “PubChem BioAssay data set” (2004)
